Where two headings read alike, the source gives them in different places.
How the values were obtained:
[1] = In vitro drug delivery rate across Carbosil membrane; assay type: in vitro ADME
Protocol: In vitro drug delivery rate determination from water-soluble PSA matrices was performed using human cadaver skin or a skin-imitating Carbosil membrane to protect the matrices from dissolving in the receptor solution. The patch was adhered to the center of a Carbosil membrane sheet of twice its area. The membrane margins were then wrapped around the sample. The back side of the packet was closely attached to a steel plate-holder to prevent direct contact of the matrix with the receptor solution. In a similar fashion, cadaver skin epidermis can be used instead of a Carbosil membrane. The holder with the wrapped sample was then submerged into an aqueous sink and in vitro drug delivery rate was determined using a USP rotating cylinder method paddle-over-disc. The rate of drug appearance rate in a receptor solution (0.15 M NaCl) at 35.0±0.5° C. was determined spectrophotometrically.

[2] = Styrene butadiene rubber matrix

Compound | Delivery rate from hydrophilic matrix via Carbosil ([1]; hydrophilic PVP-PEG matrix) [μg/cm^2h] | Release rate from hydrophobic matrices (PIB matrix (Catapress ® TTS)) [μg/cm^2h] | Delivery rate from hydrophilic matrix via Carbosil [1] [μg/cm^2h] | Release rate from hydrophobic matrices [2] [μg/cm^2h]
Clc1cccc(Cl)c1N=C1NCCN1 [Clonidine] | 5 ± 2 | 1.6 ± 0.2 | – | –
O=[N+]([O-])OCC(CO[N+](=O)[O-])O[N+](=O)[O-] [Nitroglycerin] | – | – | 160 ± 40 | –
CC(C)NCC(O)COc1cccc2ccccc12 (stereo not shown) [Propranolol] | 118 ± 25 | – | – | 56 ± 4
Silabolin | 131 ± 30 | – | – | 16 ± 7

From patent USRE45666E1, “Preparation of hydrophilic pressure sensitive adhesives having optimized adhesive properties” (priority 2000, dated 2015)
